US12565501B2, “Muscarinic acetylcholine M1 receptor antagonists” (Contineum Therapeutics, Inc., priority 2019, dated 2026)
Counter-ions that a name gives are not always drawn.

target: T1, human M1 receptor (Homo sapiens, UniProt P11229); assay: In vitro functional assay of muscarinic acetylcholine receptor activity (aequorin calcium flux, reversal of EC80 acetylcholine response); format: cell-based; conditions: CHO-K1 cells stably expressing human M1 receptor with aequorin; acetylcholine at EC80; calcium flux (luminescence); read-out: M1 IC50
T1 sequence (P11229 1-460): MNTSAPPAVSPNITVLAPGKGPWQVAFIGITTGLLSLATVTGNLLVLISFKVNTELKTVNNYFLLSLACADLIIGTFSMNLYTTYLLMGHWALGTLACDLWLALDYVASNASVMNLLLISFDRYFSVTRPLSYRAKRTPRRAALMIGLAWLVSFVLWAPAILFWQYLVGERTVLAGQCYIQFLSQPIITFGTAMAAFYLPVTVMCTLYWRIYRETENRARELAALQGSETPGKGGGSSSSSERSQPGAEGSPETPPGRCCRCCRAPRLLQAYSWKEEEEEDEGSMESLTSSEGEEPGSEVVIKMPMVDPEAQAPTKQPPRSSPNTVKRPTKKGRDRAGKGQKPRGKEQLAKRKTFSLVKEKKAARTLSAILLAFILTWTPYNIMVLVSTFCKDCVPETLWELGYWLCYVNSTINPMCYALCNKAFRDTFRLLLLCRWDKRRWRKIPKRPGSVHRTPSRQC
Procedure, shortened: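 CHO-K1 cells expressing human M1 and aequorin, loaded with 5 μM coelenterazine for 4 h, preincubated with compound 30 min at room temperature, then challenged with EC80 acetylcholine.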

Row | SMILES | IC50 [µM]
1 | COc1ccnc(C2(OCC(=O)N3CC4CCC(C3)N4c3ccc(C#N)cn3)CCC2)c1 [Example 255, 6-(3-(2-(1-(4-methoxypyridin-2-yl)cyclobutoxy)acetyl)-3,8-diazabicyclo[3.2.1]octan-8-yl)nicotinonitrile] | < 0.01
2 | COc1ccc(C2(OCC(=O)N3CC4CCC(C3)N4c3ccc(C#N)cn3)CCC2)nc1 [Example 256, 6-(3-(2-(1-(5-methoxypyridin-2-yl)cyclobutoxy)acetyl)-3,8-diazabicyclo[3.2.1]octan-8-yl)nicotinonitrile] | 1 to 10
3 | COc1ccc(C2(OCC(=O)N3CC4CCC(C3)N4c3ccc(C#N)cn3)CCC2)cn1 [Example 257, 6-(3-(2-(1-(6-methoxypyridin-3-yl)cyclobutoxy)acetyl)-3,8-diazabicyclo[3.2.1]octan-8-yl)nicotinonitrile] | 1 to 10
4 | COc1ccncc1C1(OCC(=O)N2CC3CCC(C2)N3c2ccc(C#N)cn2)CCC1 [Example 258, 6-(3-(2-(1-(4-methoxypyridin-3-yl)cyclobutoxy)acetyl)-3,8-diazabicyclo[3.2.1]octan-8-yl)nicotinonitrile] | < 0.01
5 | CCOc1cncc(C2(OCC(=O)N3CC4CCC(C3)N4c3ccc(C#N)cn3)CCC2)c1 [Example 259, 6-(3-(2-(1-(5-ethoxypyridin-3-yl)cyclobutoxy)acetyl)-3,8-diazabicyclo[3.2.1]octan-8-yl)nicotinonitrile] | 0.01 to 0.1
6 | N#Cc1ccc(N2C3CCC2CN(C(=O)COC2(c4cncnc4)CCC2)C3)nc1 [Example 262, 6-(3-(2-(1-(pyrimidin-5-yl)cyclobutoxy)acetyl)-3,8-diazabicyclo[3.2.1]octan-8-yl)nicotinonitrile] | 0.1 to 1
7 | COc1cc(C2(OCC(=O)N3CC4CCC(C3)N4c3ccc(C#N)cn3)CCC2)ncn1 [Example 263, 6-(3-(2-(1-(6-methoxypyrimidin-4-yl)cyclobutoxy)acetyl)-3,8-diazabicyclo[3.2.1]octan-8-yl)nicotinonitrile] | 0.01 to 0.1
8 | COc1ccnc(C2(OCC(=O)N3CC4CCC(C3)N4c3ccc(C#N)cn3)CCC2)n1 [Example 264, 6-(3-(2-(1-(4-methoxypyrimidin-2-yl)cyclobutoxy)acetyl)-3,8-diazabicyclo[3.2.1]octan-8-yl)nicotinonitrile] | < 0.01
9 | Cc1noc(C)c1C1(OCC(=O)N2CC3CCC(C2)N3c2ccc(C#N)cn2)CCC1 [Example 265, 6-(3-(2-(1-(3,5-dimethylisoxazol-4-yl)cyclobutoxy)acetyl)-3,8-diazabicyclo[3.2.1]octan-8-yl)nicotinonitrile] | < 0.01
10 | Cc1csc(C2(OCC(=O)N3CC4CCC(C3)N4c3ccc(C#N)cn3)CCC2)n1 [Example 266, 6-(3-(2-(1-(4-methylthiazol-2-yl)cyclobutoxy)acetyl)-3,8-diazabicyclo[3.2.1]octan-8-yl)nicotinonitrile] | 0.1 to 1
11 | COc1cc(C2(OCC(=O)N3CC4CCC(C3)N4c3ccc(C#N)cn3)CCCC2)ccn1 [Example 267, 6-(3-(2-((1-(2-methoxypyridin-4-yl)cyclopentyl)oxy)acetyl)-3,8-diazabicyclo[3.2.1]octan-8-yl)nicotinonitrile] | 0.01 to 0.1
12 | N#Cc1ccc(N2C3CCC2CN(C(=O)COC2(c4cncc(F)c4)CCCC2)C3)nc1 [Example 268, 6-(3-(2-((1-(5-fluoropyridin-3-yl)cyclopentyl)oxy)acetyl)-3,8-diazabicyclo[3.2.1]octan-8-yl)nicotinonitrile] | 0.01 to 0.1
13 | N#Cc1ccc(N2C3CCC2CN(C(=O)COC2(c4c(F)cnc(Br)c4F)CCC2)C3)nc1 [Example 270, 6-(3-(2-(1-(2-bromo-3,5-difluoropyridin-4-yl)cyclobutoxy)acetyl)-3,8-diazabicyclo[3.2.1]octan-8-yl)nicotinonitrile] | < 0.01
14 | N#Cc1ccc(N2C3CCC2CN(C(=O)COC2(c4ncc(F)cc4F)CCC2)C3)nc1 [Example 271, 6-(3-(2-(1-(3,5-difluoropyridin-2-yl)cyclobutoxy)acetyl)-3,8-diazabicyclo[3.2.1]octan-8-yl)nicotinonitrile] | 0.1 to 1
15 | COc1ncc(F)c(C2(OCC(=O)N3CC4CCC(C3)N4c3ccc(C#N)cn3)CCC2)c1F [Example 272, 6-(3-(2-(1-(3,5-difluoro-2-methoxypyridin-4-yl)cyclobutoxy)acetyl)-3,8-diazabicyclo[3.2.1]octan-8-yl)nicotinonitrile] | 0.01 to 0.1
16 | N#Cc1ccc(N2C3CCC2CN(C(=O)COC2(c4ncccn4)CCC2)C3)nc1 [Example 273, 6-(3-(2-(1-(pyrimidin-2-yl)cyclobutoxy)acetyl)-3,8-diazabicyclo[3.2.1]octan-8-yl)nicotinonitrile] | 0.1 to 1
17 | N#Cc1ccc(N2C3CCC2CN(C(=O)COC2(c4cccnn4)CCC2)C3)nc1 [Example 274, 6-(3-(2-(1-(pyridazin-3-yl)cyclobutoxy)acetyl)-3,8-diazabicyclo[3.2.1]octan-8-yl)nicotinonitrile] | 0.01 to 0.1
18 | COc1cc(C2(OCC(=O)N3CC4CCC(C3)N4c3ccc(C#N)cn3)CCC2)cnn1 [Example 275, 6-(3-(2-(1-(6-methoxypyridazin-4-yl)cyclobutoxy)acetyl)-3,8-diazabicyclo[3.2.1]octan-8-yl)nicotinonitrile] | 0.01 to 0.1
19 | N#Cc1ccc(N2C3CCC2CN(C(=O)COCC(F)(F)c2cccc4ncccc24)C3)nc1 [Example 276, 6-(3-(2-(2,2-difluoro-2-(quinolin-5-yl)ethoxy)acetyl)-3,8-diazabicyclo[3.2.1]octan-8-yl)nicotinonitrile] | < 0.01
20 | COc1cc(C(F)(F)COCC(=O)N2CC3CCC(C2)N3c2ccc(C#N)cn2)ccn1 [Example 277, 6-(3-(2-(2,2-difluoro-2-(2-methoxypyridin-4-yl)ethoxy)acetyl)-3,8-diazabicyclo[3.2.1]octan-8-yl)nicotinonitrile] | 0.1 to 1
21 | N#Cc1ccc(N2C3CCC2CN(C(=O)COCC(F)(F)c2cccn4ncnc24)C3)nc1 [Example 278, 6-(3-(2-(2-([1,2,4]triazolo[1,5-a]pyridin-8-yl)-2,2-difluoroethoxy)acetyl)-3,8-diazabicyclo[3.2.1]octan-8-yl)nicotinonitrile] | < 0.01
22 | N#Cc1ccc(N2C3COCC2CN(C(=O)COC2(c4ccc(F)c(F)c4)CC2)C3)nc1 [Example 279, 6-(7-(2-(1-(3,4-difluorophenyl)cyclopropoxy)acetyl)-3-oxa-7,9-diazabicyclo[3.3.1]nonan-9-yl)nicotinonitrile] | 1 to 10
23 | N#Cc1ccc(N2C3CCC2CN(C(=O)COC2(c4ccc(F)c(F)c4)CC2)C3)nn1 [Example 280, 6-(3-(2-(1-(3,4-difluorophenyl)cyclopropoxy)acetyl)-3,8-diazabicyclo[3.2.1]octan-8-yl)pyridazine-3-carbonitrile] | 0.1 to 1
24 | COc1cncc(C2(OCC(=O)N3CC4CCC(C3)N4c3ccnc(C#N)c3)CCC2)c1 [Example 281, 4-(3-(2-(1-(5-methoxypyridin-3-yl)cyclobutoxy)acetyl)-3,8-diazabicyclo[3.2.1]octan-8-yl)picolinonitrile] | < 0.01
25 | N#Cc1cc(N2C3CCC2CN(C(=O)COC2(c4ccncc4F)CCC2)C3)ccn1 [Example 282, 4-(3-(2-(1-(3-fluoropyridin-4-yl)cyclobutoxy)acetyl)-3,8-diazabicyclo[3.2.1]octan-8-yl)picolinonitrile] | 0.01 to 0.1
26 | N#Cc1ccc(N2C[C@@H]3CC[C@H]2CN3C(=O)COC2(c3ccc(F)c(F)c3)CC2)nc1 [Example 283, 6-((1S,4S)-5-(2-(1-(3,4-difluorophenyl)cyclopropoxy)acetyl)-2,5-diazabicyclo[2.2.2]octan-2-yl)nicotinonitrile] | 0.1 to 1
27 | N#Cc1ccc(N2[C@@H]3C[C@H]2CN(C(=O)COC2(c4ccc(F)c(F)c4)CC2)C3)nc1 [Example 284, 6-(3-(2-(1-(3,4-difluorophenyl)cyclopropoxy)acetyl)-3,6-diazabicyclo[3.1.1]heptan-6-yl)nicotinonitrile] | 1 to 10
28 | N#Cc1ccc(N2C[C@H]3C[C@@H]2CN3C(=O)COC2(c3ccc(F)c(F)c3)CC2)nc1 [Example 285, 6-((1R,4R)-5-(2-(1-(3,4-difluorophenyl)cyclopropoxy)acetyl)-2,5-diazabicyclo[2.2.1]heptan-2-yl)nicotinonitrile] | > 1
29 | N#Cc1ccc(N2C[C@H]3CC[C@@H]2CN3C(=O)COC2(c3ccc(F)c(F)c3)CC2)nc1 [Example 286, 6-((1R,4R)-5-(2-(1-(3,4-difluorophenyl)cyclopropoxy)acetyl)-2,5-diazabicyclo[2.2.2]octan-2-yl)nicotinonitrile] | > 1
30 | N#Cc1ccc(N2C[C@@H]3C[C@H]2CN3C(=O)COC2(c3ccc(F)c(F)c3)CC2)nc1 [Example 287, 6-((1S,4S)-5-(2-(1-(3,4-difluorophenyl)cyclopropoxy)acetyl)-2,5-diazabicyclo[2.2.1]heptan-2-yl)nicotinonitrile] | 1 to 10

same assay, conditions: M1 IC50, CHO-K1 cells stably expressing human M1 receptor with aequorin; acetylcholine at EC80; calcium flux (luminescence)

Row | SMILES | IC50 [µM]
31 | N#Cc1ccc(N2C3CCC2CN(C(=O)CCNC2(c4ccc(F)c(C#N)c4)CC2)C3)nc1 [Example 288, 6-(3-(3-((1-(3-cyano-4-fluorophenyl)cyclopropyl)amino)propanoyl)-3,8-diazabicyclo[3.2.1]octan-8-yl)nicotinonitrile formic acid Salt] | 0.01 to 0.1
